The target of experiment [1] is Glucose-6-phosphate 1-dehydrogenase (Homo sapiens, UniProt P11413). The experiment in a line: inhibition of Homo sapiens G6PD, dose series – biochemical, fluorescence, selectivity assay for P. falciparum G6PD inhibitor project, dose response (AID 504792). The class given is functional.
For experiment [2], the target named is FAD-linked sulfhydryl oxidase ALR (Homo sapiens, UniProt P55789). The experiment in a line: ALR-catalysed DTT oxidation blockers – biochemical, H2O2 detection, luminescence, cherry-pick, dose response (AID 493248).
The target of the next experiment is Genome polyprotein (dengue virus type 2, UniProt P29990). Briefly: flavivirus cap methylation enzyme inhibition – biochemical, confirmation dose response, primary screen (AID 588689). The class given is functional.
Experiment [3] addresses DNA dC->dU-editing enzyme APOBEC-3G (Homo sapiens, UniProt Q9HC16). The experiment in a line: Dose Response confirmation of small molecule APOBEC3G DNA Deaminase Inhibitors via a fluorescence-based single-stranded DNA deaminase assay. [Related pubchem assays (depositor defined):AID493012, AID493028]. The format is functional.
Experiment [4] can be described thus: NIH-3T3 fibroblast cytotoxicity, dose response, cytotoxicity control, cell-based, fluorescence, Alamar Blue, secondary assay (AID 2327).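 Note: NIH-3T3 mouse fibroblasts cultured with fluconazole at 8 µg/mL.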 The class given is functional. In general terms: The colour change of resazurin is a common sign of viable cells or microbes.
A short description of experiment [5]: fluconazole-exposed Candida albicans growth modulators – fluorescence, retest, confirmation (AID 2467). The format is functional, cell-based.
Experiment [6] deals with T1, Serine/threonine-protein phosphatase (Candida dubliniensis (strain CD36 / CBS 7987 / NCPF 3949 / NRRLY-17841) (Yeast), UniProt B9W6M3).
T1 sequence (B9W6M3 whole entry): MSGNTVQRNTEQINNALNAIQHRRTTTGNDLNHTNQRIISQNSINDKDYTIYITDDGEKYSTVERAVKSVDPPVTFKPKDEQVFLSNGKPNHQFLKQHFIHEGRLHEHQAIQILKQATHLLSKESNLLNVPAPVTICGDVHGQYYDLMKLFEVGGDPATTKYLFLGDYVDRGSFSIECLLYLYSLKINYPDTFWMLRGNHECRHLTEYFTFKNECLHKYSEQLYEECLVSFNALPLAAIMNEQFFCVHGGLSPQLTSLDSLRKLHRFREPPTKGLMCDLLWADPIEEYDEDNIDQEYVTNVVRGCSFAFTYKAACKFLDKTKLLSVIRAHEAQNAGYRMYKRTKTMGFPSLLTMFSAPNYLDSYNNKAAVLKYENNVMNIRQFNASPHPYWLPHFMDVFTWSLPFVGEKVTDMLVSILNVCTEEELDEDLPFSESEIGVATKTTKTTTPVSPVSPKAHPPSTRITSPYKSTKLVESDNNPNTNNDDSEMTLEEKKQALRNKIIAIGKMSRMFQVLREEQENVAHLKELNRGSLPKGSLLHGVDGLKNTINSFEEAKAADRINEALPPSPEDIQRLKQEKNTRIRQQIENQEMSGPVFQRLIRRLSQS
Briefly: blockers of CaCl2-induced CDRE-lacZ signaling – S. cerevisiae, luminescence, secondary, dose response (AID 2388).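 Note: yeast reporter cells carrying a calcineurin-responsive lacZ construct stimulated with calcium chloride; luminescent beta-galactosidase reporter signal in whole cells rather than isolated phosphatase activity; potency for inhibition where a drop in reporter signal means calcineurin blockade.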 The format is functional, cell-based.

Another experiment deals with T2, Bcl-2-related protein A1 (Mus musculus, UniProt Q07440).
T2 sequence (Q07440 whole entry): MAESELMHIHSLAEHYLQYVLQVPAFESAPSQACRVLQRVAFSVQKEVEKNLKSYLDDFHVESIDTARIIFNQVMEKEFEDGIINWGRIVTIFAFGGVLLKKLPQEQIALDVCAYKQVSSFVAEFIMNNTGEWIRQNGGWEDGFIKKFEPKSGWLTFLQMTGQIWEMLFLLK
The format is functional.

For experiment [7], the target named is T3, Ubiquitin-conjugating enzyme E2 N (Homo sapiens, UniProt P61088).
T3 sequence (P61088 whole entry): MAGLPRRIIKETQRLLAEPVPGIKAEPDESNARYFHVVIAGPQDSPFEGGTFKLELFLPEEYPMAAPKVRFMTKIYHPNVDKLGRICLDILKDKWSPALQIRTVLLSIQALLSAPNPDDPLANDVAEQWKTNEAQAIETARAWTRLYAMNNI
The class given is functional.

Experiment [8] deals with T3, Ubiquitin-conjugating enzyme E2 N. The class given is functional. The source holds these as a separate data set.
Experiment [9] concerns the target Heat shock protein HSP 90-alpha (Homo sapiens, UniProt P07900). The class given is functional, organism-based.
The target in experiment [10] is ATP-dependent molecular chaperone HSP82 (Candida albicans (strain WO-1) (Yeast), UniProt C4YTQ8). Briefly: steroid-induced GRE reporter decrease in yeast – S. cerevisiae, luminescence, Hsp90 inhibitor project, dose response (AID 2400).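 Note: beta-galactosidase luminescence from glucocorticoid response element reporter as proxy for Hsp90 function; inhibitor potency where signal loss means Hsp90 inhibition.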 The format is functional, cell-based.
Experiment [11] in a line: luciferase reporter signal suppression in cells – H4 neuroglioma cells, luminescence, dose response (AID 1990). The format is functional, cell-based.
The subject of experiment [12] is Streptococcus sp. 'group A'. The experiment in a line: Streptococcus pyogenes SK(-)GAS viability under kanamycin – luminescence, BacTiterGlo, confirmation, counter-screen for streptokinase expression inhibitor project, dose response (AID 1900). The class given is functional, organism-based. (In general: Counterscreens check selectivity or assay interference.)
Experiment [13] in a line: Luminescence Cell-Based Dose Response HTS to Identify Inhibitors of 5'UTR Stem-Loop Driven Prion Protein mRNA Translation in H4 Neuroglioblastoma Cells. [Related pubchem assays: 1827 (Project Summary), 1813 (Primary HTS)]. The class given is functional.
Experiment [14] is described as follows: alpha-synuclein stem-loop luciferase translation blockers – H4 neuroglioma cells, luminescence, confirmation (AID 1988). The class given is functional, cell-based.
The subject of another experiment is Streptococcus. Briefly: GAS UMAA2166 growth inhibition – luminescence, BacTiterGlo, counter-screen for streptokinase expression inhibitor project, dose response (AID 1915).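 Note: potency for reduction of bacterial viability or growth.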 The format is functional, organism-based.
Experiment [15] addresses Delta-type opioid receptor (Homo sapiens, UniProt P41143). The experiment in a line: Counterscreen for agonists of heterodimerization of the mu 1 (OPRM1) and delta 1 (OPRD1) opioid receptors: Luminescence-based cell-based high throughput dose response assay to identify agonists of OPRD1 homodimerization. [Related pubchem assays (depositor defined):AID504326, AID504355, AID504692, AID504904, AID504905]. The class given is functional.

The next experiment addresses Mu-type opioid receptor (Homo sapiens, UniProt P35372). Briefly: Counterscreen for agonists of heterodimerization of the mu 1 (OPRM1) and delta 1 (OPRD1) opioid receptors: Luminescence-based cell-based high throughput dose response assay to identify agonists of OPRM1 homodimerization. The class given is functional.
Experiment [16] addresses 5-hydroxytryptamine receptor 5A (Homo sapiens, UniProt P47898). The experiment in a line: Counterscreen for agonists of OPRM1-OPRD1 heterodimerization: luminescence-based cell-based high throughput dose response assay to identify agonists of 5-hydroxytryptamine (serotonin) 5A receptor (HTR5A). [Related pubchem assays (depositor defined):AID504326, AID504355, AID504692, AID504904, AID504905]. The format is functional.

Another experiment deals with INS1. The experiment in a line: INS-1E survival protection against cytokine death – cell-based, luminescence, retest, dose response (AID 449756).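 Note: cell death triggered by IL-1 beta plus TNF-alpha plus IFN-gamma mixture; protective hits raise ATP signal compared with cytokine alone wells.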 The class given is functional. The conditions noted are these: Rattus norvegicus.
The test system of experiment [17] is HEK293. Briefly: inhibition of NOD1-driven NF-kB reporter – cell-based, luminescence, uHTS, primary screen (AID 1578). The conditions noted are these: Homo sapiens. The class given is functional.
For experiment [18], the system named is HEK293. Briefly: cells. The class given is functional, cell-based. Conditions: Homo sapiens.
Experiment [19] relates to HEK293. The experiment in a line: NOD2 signaling inhibitors in MDP-stimulated cells, cell-based, uHTS, luminescence (AID 2001). The class given is functional. The conditions noted are these: Homo sapiens.

Calls of active or inactive are those of the source.

Glucose-6-phosphate 1-dehydrogenase, sequence (P11413 whole entry): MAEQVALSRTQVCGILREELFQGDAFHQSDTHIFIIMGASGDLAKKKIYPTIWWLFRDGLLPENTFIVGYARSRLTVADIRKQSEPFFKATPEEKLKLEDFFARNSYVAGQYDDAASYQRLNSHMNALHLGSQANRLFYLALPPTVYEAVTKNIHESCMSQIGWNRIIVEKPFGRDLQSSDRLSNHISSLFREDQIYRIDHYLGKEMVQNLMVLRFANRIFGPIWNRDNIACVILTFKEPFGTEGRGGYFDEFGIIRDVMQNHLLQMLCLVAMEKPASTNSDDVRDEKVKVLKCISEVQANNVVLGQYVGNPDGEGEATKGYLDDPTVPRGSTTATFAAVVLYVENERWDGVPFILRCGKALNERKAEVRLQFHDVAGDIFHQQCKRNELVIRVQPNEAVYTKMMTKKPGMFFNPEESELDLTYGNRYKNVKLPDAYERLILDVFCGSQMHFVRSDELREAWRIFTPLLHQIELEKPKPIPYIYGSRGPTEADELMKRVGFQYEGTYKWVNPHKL
Mu-type opioid receptor, sequence (P35372 whole entry): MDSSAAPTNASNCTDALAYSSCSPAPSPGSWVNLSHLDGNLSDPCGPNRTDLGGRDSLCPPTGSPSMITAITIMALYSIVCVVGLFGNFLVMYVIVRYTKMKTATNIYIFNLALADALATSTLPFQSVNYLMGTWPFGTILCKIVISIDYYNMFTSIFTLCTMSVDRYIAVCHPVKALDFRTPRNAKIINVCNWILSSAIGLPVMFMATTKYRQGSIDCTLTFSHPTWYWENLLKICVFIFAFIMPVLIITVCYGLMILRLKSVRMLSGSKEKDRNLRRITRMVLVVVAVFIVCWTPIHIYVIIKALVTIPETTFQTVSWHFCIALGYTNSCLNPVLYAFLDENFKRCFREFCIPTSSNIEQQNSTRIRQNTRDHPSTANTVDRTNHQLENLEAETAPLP
Delta-type opioid receptor, sequence (P41143 whole entry): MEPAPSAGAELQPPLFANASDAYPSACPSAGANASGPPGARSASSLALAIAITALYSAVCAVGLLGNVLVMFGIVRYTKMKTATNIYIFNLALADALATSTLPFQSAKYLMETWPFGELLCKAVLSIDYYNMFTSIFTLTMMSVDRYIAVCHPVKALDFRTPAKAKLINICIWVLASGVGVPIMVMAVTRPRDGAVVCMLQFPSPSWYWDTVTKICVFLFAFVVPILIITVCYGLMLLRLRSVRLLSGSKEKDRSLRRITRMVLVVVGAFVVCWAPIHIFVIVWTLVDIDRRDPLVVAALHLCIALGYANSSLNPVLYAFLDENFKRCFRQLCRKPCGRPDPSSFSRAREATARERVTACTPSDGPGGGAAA
5-hydroxytryptamine receptor 5A, sequence (P47898 whole entry): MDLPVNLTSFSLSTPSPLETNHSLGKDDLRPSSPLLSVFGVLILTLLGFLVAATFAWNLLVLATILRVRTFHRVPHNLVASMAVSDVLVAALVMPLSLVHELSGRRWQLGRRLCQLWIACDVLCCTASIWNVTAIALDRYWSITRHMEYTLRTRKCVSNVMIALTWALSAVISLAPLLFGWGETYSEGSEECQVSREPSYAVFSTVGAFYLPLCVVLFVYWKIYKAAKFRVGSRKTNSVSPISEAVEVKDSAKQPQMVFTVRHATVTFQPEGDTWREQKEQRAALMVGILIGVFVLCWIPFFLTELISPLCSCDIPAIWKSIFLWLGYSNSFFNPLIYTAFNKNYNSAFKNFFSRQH
FAD-linked sulfhydryl oxidase ALR, sequence (P55789 whole entry): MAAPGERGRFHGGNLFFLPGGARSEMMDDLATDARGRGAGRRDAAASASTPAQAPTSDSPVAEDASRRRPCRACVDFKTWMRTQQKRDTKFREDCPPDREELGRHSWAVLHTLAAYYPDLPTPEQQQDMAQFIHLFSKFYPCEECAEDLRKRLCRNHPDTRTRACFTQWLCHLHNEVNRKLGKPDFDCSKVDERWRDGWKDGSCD
DNA dC->dU-editing enzyme APOBEC-3G, sequence (Q9HC16 whole entry): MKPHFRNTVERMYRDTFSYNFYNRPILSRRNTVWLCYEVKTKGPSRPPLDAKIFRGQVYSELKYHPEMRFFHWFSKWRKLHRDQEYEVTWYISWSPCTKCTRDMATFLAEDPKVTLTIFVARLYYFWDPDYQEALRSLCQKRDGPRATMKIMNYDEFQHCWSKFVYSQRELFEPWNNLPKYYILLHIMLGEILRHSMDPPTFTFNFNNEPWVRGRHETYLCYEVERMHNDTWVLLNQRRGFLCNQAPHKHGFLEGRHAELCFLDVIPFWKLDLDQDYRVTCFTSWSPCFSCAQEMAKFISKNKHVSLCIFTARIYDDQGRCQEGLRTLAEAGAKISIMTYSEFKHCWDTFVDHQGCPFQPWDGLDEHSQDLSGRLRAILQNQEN
ATP-dependent molecular chaperone HSP82, sequence (C4YTQ8 whole entry): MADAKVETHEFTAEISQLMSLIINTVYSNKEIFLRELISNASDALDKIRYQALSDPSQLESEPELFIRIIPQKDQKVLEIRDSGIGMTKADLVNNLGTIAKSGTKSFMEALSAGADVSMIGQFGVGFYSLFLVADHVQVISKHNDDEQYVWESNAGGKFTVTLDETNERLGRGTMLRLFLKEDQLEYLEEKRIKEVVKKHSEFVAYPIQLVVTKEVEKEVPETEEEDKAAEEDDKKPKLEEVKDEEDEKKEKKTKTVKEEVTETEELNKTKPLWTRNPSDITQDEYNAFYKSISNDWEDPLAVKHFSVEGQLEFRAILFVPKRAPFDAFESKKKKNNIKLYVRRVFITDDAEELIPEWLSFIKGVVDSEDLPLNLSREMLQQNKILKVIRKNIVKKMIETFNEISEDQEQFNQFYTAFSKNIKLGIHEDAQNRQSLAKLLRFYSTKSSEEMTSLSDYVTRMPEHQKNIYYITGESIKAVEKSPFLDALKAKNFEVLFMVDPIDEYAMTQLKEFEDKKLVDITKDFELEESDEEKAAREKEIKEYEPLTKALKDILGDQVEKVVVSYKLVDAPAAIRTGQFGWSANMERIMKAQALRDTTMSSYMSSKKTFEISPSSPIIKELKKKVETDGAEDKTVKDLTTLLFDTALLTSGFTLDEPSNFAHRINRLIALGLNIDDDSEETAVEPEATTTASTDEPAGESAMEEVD
Genome polyprotein, sequence (P29990 2492-3391 limits assumed): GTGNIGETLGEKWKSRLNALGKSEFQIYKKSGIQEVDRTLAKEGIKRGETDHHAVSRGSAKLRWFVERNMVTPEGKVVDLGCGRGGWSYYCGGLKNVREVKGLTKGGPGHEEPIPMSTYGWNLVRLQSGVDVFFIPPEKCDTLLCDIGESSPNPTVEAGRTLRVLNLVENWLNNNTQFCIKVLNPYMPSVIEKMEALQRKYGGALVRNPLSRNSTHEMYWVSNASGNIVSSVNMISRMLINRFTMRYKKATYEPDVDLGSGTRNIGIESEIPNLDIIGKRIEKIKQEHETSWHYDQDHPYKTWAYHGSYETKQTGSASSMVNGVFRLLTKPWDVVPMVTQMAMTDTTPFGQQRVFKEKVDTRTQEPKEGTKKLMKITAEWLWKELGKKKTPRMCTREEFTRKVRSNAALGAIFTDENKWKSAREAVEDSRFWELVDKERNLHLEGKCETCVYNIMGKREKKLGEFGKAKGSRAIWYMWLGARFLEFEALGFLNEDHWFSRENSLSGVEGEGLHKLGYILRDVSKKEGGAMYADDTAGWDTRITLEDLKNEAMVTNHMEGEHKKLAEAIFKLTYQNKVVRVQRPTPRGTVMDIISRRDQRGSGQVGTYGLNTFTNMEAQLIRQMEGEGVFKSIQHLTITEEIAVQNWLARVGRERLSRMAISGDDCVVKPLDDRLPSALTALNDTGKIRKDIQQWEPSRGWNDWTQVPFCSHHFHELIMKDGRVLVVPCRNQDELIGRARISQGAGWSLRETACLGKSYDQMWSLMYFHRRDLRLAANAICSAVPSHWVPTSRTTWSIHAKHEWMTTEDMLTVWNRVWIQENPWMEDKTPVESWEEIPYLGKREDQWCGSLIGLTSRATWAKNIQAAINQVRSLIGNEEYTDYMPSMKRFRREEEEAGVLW

Usually IC50 stands for the concentration at which inhibition is half-maximal. For orientation: AC50 means the concentration at which the activity in the assay is half-maximal. Take `NS(=O)(=O)c1ccc(-c2ccc(C=C3C(=O)NC(=O)NC3=O)o2)cc1`: the IC50 is 27.4 µM (inactive) in experiment [1] and > 100 µM (active) on Genome polyprotein. Further, the AC50 in [2] is 1.16 µM (active).
For `CCN(CC)c1ccc(NC(=O)c2cccc(C)c2)cc1S(=O)(=O)Nc1ccccc1OC`, the IC50 in experiment [1] was > 80 µM (inactive); in [3], 51.5 µM (active).
One may read the EC50 as the concentration giving half of the maximal effect. Turning to `Cc1ccc(OCC(=O)NNC(=S)NC(=O)C2CC2)c(C)c1`, the EC50 in experiment [4] was > 150 µM (inactive); in experiment [5], 1.25 µM (active); in experiment [6] it was > 180 µM (inactive); in experiment [10], 14.3 µM (active). The IC50 at Bcl-2-related protein A1 is > 20 µM (inactive); in experiment [7], 3.27 µM (active); in experiment [8] it was 1.59 µM (active). For the same molecule, the AC50 in [9] is 4.32 µM (active).
Consider `COc1cc(Br)cc(/C=N/NC(=O)Cc2ccc(C(F)(F)F)cc2[N+](=O)[O-])c1O`, for which the EC50 in [11] is > 120 µM (not active); in experiment [12], 1.84 µM (active); in experiment [13], 12.6 µM (active); in experiment [14] it was 9.21 µM (active); in the experiment on Streptococcus, 2.42 µM (active); in experiment [15], > 92.4 µM (inactive). Also, the EC50 (on Mu-type opioid receptor; in [16]) was > 92.4 µM (inactive) throughout. Also, in the experiment on INS1, the AC50 was 4.33 µM (active).
Regarding `CCOC(=O)C1(CCOc2ccccc2)CCN(Cc2ccc(C)s2)CC1`, the EC50 (in experiment [15]; on Mu-type opioid receptor; in experiment [16]) was > 92.5 µM (inactive) in each case.
`COc1ccccc1NS(=O)(=O)c1cccc(NC(=O)c2ccc3ccccc3n2)c1`: the EC50 with HEK293 [17] is 6.61 µM (active). In addition, the figures for the IC50 in the experiment with HEK293 [18] and in the experiment with HEK293 [19] were > 20 µM (inactive) and 7.38 µM (active), respectively.
As to `COc1ccc(-c2oc3ncnc(N)c3c2-c2ccccc2)cc1`, the IC50 at Bcl-2-related protein A1 was > 20 µM (inactive); in [7], 7.81 µM (active); in experiment [8], 3.58 µM (active).

These data come from ChEMBL document CHEMBL1201862, “PubChem BioAssay data set” (2004).
